Results published in patent US20200171056A1, “SULFONYLUREA COMPOUNDS IN THE TREATMENT OF DISEASE ASSOCIATED WITH UV-INDUCED DAMAGE” (CeMM - Forschungszentrum für Molekulare Medizin GmbH, priority 2017, published 2020).

Test system: WT HAP1 cells
Assay: Survival after other DNA damaging agents (MMC, HU, MMS)
Type: cell-based, human
Conditions: WT HAP1, 0.5 mM for 6 hours, 3 days
Experimental: A. WT and ΔXPA cells were either treated with DMSO or 0.5 mM acetohexamide for 6 hours. Cell cycle profiles were determined using propidium iodide (P1) staining followed by FACS analysis. B-D. Survival of WT HAP1 cells treated with either DMSO or 0.5 mM acetohexamide for 6 hours, followed by exposure to the indicated DNA damaging agents (MMC: mitomycin C; HU: hydroxyl urea; MMS: methyl methanesulfonate). Survival was assessed after 3 days using CellTitre-Glo. E. Cell viability of WT cells treated either with 0.5 mM acetohexamide or 30 μM N-acetylcysteine (NAC) for 6 hours, followed by 30 J/M^2 UV exposure.
Dose Responses and UV Treatment Dose-response curves for the DNA damage agents including mitomycin C (MMC), methyl methanesulfonate (MMS), hydroxyurea (HU), neocarzinostatin (NCS) and illudin S were performed in 96-well plates by seeding 1,000 cells/well in triplicates. The next day, compounds at different concentrations were added and 3 days later, cell viability was assessed using Cell Titer-Glo (Promega)

CC(=O)c1ccc(S(=O)(=O)NC(=O)NC2CCCCC2)cc1 [acetohexamide]
did not increase cellular survival: cellular survival following exposure to HU (then hydroxyurea) | cellular survival following exposure to MMS (then methyl methanesulfonate) | cellular survival following exposure to MMC (then mitomycin C)
